This note sets out measurements from patent US20080299062A1, “Use of Oxocarboxylic Acids-Containing Combinations for Deodorization” (priority 2004, published 2008).

Assay [1] is described as follows: Odor of permanently waved hair strands, leave-on method (base: conditioner). The settings on record: for Odor rating vs blank, Day 1, pH 2-3 / Odor rating vs blank, Day 1, pH 4-5 / Odor rating vs blank, Day 2, pH 2-3 / Odor rating vs blank, Day 2, pH 4-5 / Odor rating vs blank, Day 3, pH 2-3 / Odor rating vs blank, Day 3, pH 4-5 / Odor rating vs blank, Day 4, pH 2-3 / Odor rating vs blank, Day 4, pH 4-5: test substance 0.01 wt. %; for Odor rating vs blank, Day 1, pH 2-3 / Odor rating vs blank, Day 1, pH 4-5: Day 1, wet; for Odor rating vs blank, Day 1, pH 2-3 / Odor rating vs blank, Day 2, pH 2-3 / Odor rating vs blank, Day 3, pH 2-3 / Odor rating vs blank, Day 4, pH 2-3: pH 2-3, each symbol = one test strand; for Odor rating vs blank, Day 1, pH 4-5 / Odor rating vs blank, Day 2, pH 4-5 / Odor rating vs blank, Day 3, pH 4-5 / Odor rating vs blank, Day 4, pH 4-5: pH 4-5, each symbol = one test strand; for Odor rating vs blank, Day 2, pH 2-3 / Odor rating vs blank, Day 2, pH 4-5: Day 2, dry; for Odor rating vs blank, Day 3, pH 2-3 / Odor rating vs blank, Day 3, pH 4-5: Day 3, wet; for Odor rating vs blank, Day 4, pH 2-3 / Odor rating vs blank, Day 4, pH 4-5: Day 4, dry. Here is the method: The test substances were tested on hair that had been freshly permanently waved. To this end, hair braids were cut into 2.5-cm pieces, bleached for 30 minutes and washed with perfume-free shampoo. To obtain fully odorless strands, the strands were then dipped three times into a mixture of isopropanol 25%/ethanol 25%/water 50%. The hair was kept for 24 hours in a conditioning room (20° C. at 85% relative humidity) and then cut to a weight of 2 g. This was followed by an odor test. Ten strands per post-treatment agent to be tested were wound onto rollers (diameter: 13 mm) and kept overnight in the conditioning room (20° C. at 85% relative humidity). The next morning, these strands were subjected to permanent waving.
Ten rollers holding 2 g of hair each were placed in a crystallizing dish and covered twice with 20 g of a commercial wave lotion, the rollers being turned over after the first 20 g to ensure uniform distribution. The rollers were then placed in a drier at 40° C. for 15 min, after which they were rinsed with water for 5 minutes namely for 2 min under running city water and for an additional 3 min by immersing them in water. The hair was then dabbed dry with a paper napkin. Afterward, the fixation was carried out with the aid of a commercial foam fixative. To this end, the rollers were immersed for 3 min in 500 mL of fixing solution. Excess fixing solution was then poured off, and the rollers were allowed to stand for an additional 7 minutes. They were then again rinsed with water for 5 min (see above) and dabbed dry with a paper napkin. Finally, the hair was detached from the roller and placed in a drier at 40° C. for 60 minutes.
To test the efficacy of the compounds as permanent wave post-treatment agents, the zinc salts and the corresponding zinc-free acids alone were incorporated at two different pH values into common cosmetic product bases. Zinc citrate (trizinc dicitrate) made soluble with a slight excess of citric acid was tested as the reference substance for a zinc salt without the odor-influencing counterion. The oxocarboxylic acids were used both as the sodium salts and in the form of their zinc salts. The pH values were then adjusted with citric acid or NaOH.
In the following example, 0.5 mL of a leave-on conditioner was massaged into the freshly permanently waved hair (2 g in each case), and after a contact time of 10 min the odor was evaluated by five test subjects (Table 1). In each case, the odor evaluation was performed on 3 test strands. The average values of the evaluation results are tabulated.
Each symbol stands for one test strand. • ◯=odor indistinguishable from that of blank • +=odor better than that of blank • ++=odor appreciably better than that of blank/odorless

Assay [2] is described as follows: Odor of permanently waved hair strands, rinse-off method (base: hair-cure agent). The conditions noted are these: rinse-off hair-cure agent, 5-min contact, table head 0.01 wt. % (text b103: 0.1 wt. %), each symbol = one test strand; for Odor rating vs blank, Day 1, pH 2-3 / Odor rating vs blank, Day 1, pH 4-5: Day 1, wet; for Odor rating vs blank, Day 2, pH 2-3 / Odor rating vs blank, Day 2, pH 4-5: Day 2, dry; for Odor rating vs blank, Day 3, pH 2-3 / Odor rating vs blank, Day 3, pH 4-5: Day 3, wet; for Odor rating vs blank, Day 4, pH 2-3 / Odor rating vs blank, Day 4, pH 4-5: Day 4, dry.

Assay [3] is described as follows: Various odor tests carried out on permanently waved hair (general statements). The settings on record: sulfur odor of permanently waved hair; general statement.

Turning to `CC(=O)C(=O)[O-].CC(=O)C(=O)[O-].[Zn+2]` [Zn pyruvate], in assay [1], the “Odor rating vs blank, Day 1, pH 2-3” value is recorded as “∘ + ∘”; the “Odor rating vs blank, Day 1, pH 4-5” value was “+ + +”; the “Odor rating vs blank, Day 2, pH 2-3” value is reported as “∘ ∘ ∘”; the “Odor rating vs blank, Day 2, pH 4-5” value was “+ + +”. In assay [1], the “Odor rating vs blank, Day 3, pH 2-3” value is “∘ ∘ ∘”; the “Odor rating vs blank, Day 3, pH 4-5” value is “∘ + +”; the “Odor rating vs blank, Day 4, pH 2-3” value was “∘ ∘ ∘”; the “Odor rating vs blank, Day 4, pH 4-5” value was “+ + +”. In addition, in assay [2], the “Odor rating vs blank, Day 1, pH 2-3” value is reported as “∘ ∘ ∘”; the “Odor rating vs blank, Day 1, pH 4-5” value was “∘ + ∘”; the “Odor rating vs blank, Day 2, pH 2-3” value was “∘ ∘ ∘”; the “Odor rating vs blank, Day 2, pH 4-5” value was “+ ∘ +”. For the same compound, in assay [2], the “Odor rating vs blank, Day 3, pH 2-3” value is reported as “∘ ∘ ∘”; the “Odor rating vs blank, Day 3, pH 4-5” value is “∘ + +”; the “Odor rating vs blank, Day 4, pH 2-3” value is “∘ ∘ ∘”; the “Odor rating vs blank, Day 4, pH 4-5” value is “+ + +”.

`CC(=O)C(=O)[O-].[Na+]` [Na pyruvate]: in assay [1], the “Odor rating vs blank, Day 1, pH 2-3” value is “+ ∘ +”; the “Odor rating vs blank, Day 1, pH 4-5” value is “∘ ∘ +”; the “Odor rating vs blank, Day 2, pH 2-3” value is “∘ + ∘”; the “Odor rating vs blank, Day 2, pH 4-5” value was “∘ + ∘”. In assay [1], the “Odor rating vs blank, Day 3, pH 2-3” value is “∘ + +”; the “Odor rating vs blank, Day 3, pH 4-5” value is recorded as “∘ + +”; the “Odor rating vs blank, Day 4, pH 2-3” value is given as “∘ + +”; the “Odor rating vs blank, Day 4, pH 4-5” value is given as “+ + ∘”. Further, in assay [2], the “Odor rating vs blank, Day 1, pH 2-3” value is “∘∘ +”; the “Odor rating vs blank, Day 1, pH 4-5” value was “∘ + +”; the “Odor rating vs blank, Day 2, pH 2-3” value is listed as “∘ + +”; the “Odor rating vs blank, Day 2, pH 4-5” value is reported as “∘ + +”. In assay [2], the “Odor rating vs blank, Day 3, pH 2-3” value is listed as “∘ + +”; the “Odor rating vs blank, Day 3, pH 4-5” value was “∘ + +”; the “Odor rating vs blank, Day 4, pH 2-3” value is recorded as “∘ + +”; the “Odor rating vs blank, Day 4, pH 4-5” value is “∘ + +”.

For `O=C([O-])CC(O)(CC(=O)[O-])C(=O)[O-].O=C([O-])CC(O)(CC(=O)[O-])C(=O)[O-].[Zn+2].[Zn+2].[Zn+2]` [Trizinc dicitrate, trizinc dicitrate], in assay [1], the “Odor rating vs blank, Day 1, pH 2-3” value is on record as “+ ∘ ∘”; the “Odor rating vs blank, Day 1, pH 4-5” value is “∘ + +”; the “Odor rating vs blank, Day 2, pH 2-3” value is reported as “∘ + ∘”; the “Odor rating vs blank, Day 2, pH 4-5” value is on record as “∘ + +”. Besides, in assay [1], the “Odor rating vs blank, Day 3, pH 2-3” value was “∘ ∘ +”; the “Odor rating vs blank, Day 3, pH 4-5” value is listed as “∘ + +”; the “Odor rating vs blank, Day 4, pH 2-3” value is recorded as “∘ + ∘”; the “Odor rating vs blank, Day 4, pH 4-5” value was “+ + +”. In assay [2], the “Odor rating vs blank, Day 1, pH 2-3” value is listed as “∘ ∘ ∘”; the “Odor rating vs blank, Day 1, pH 4-5” value is “∘ ∘ +”; the “Odor rating vs blank, Day 2, pH 2-3” value is reported as “+ ∘ ∘”; the “Odor rating vs blank, Day 2, pH 4-5” value is “∘ + +”. In addition, in assay [2], the “Odor rating vs blank, Day 3, pH 2-3” value was “∘ ∘ +”; the “Odor rating vs blank, Day 3, pH 4-5” value is reported as “∘ + +”; the “Odor rating vs blank, Day 4, pH 2-3” value is recorded as “∘ ∘ +”; the “Odor rating vs blank, Day 4, pH 4-5” value is “∘ + +”.

With `O=CC(=O)[O-].O=CC(=O)[O-].[Zn+2]` [Zn glyoxylate], in assay [1], the “Odor rating vs blank, Day 1, pH 2-3” value was “∘ + +”; the “Odor rating vs blank, Day 1, pH 4-5” value is listed as “+ ∘ ∘”; the “Odor rating vs blank, Day 2, pH 2-3” value was “∘ ∘ ∘”; the “Odor rating vs blank, Day 2, pH 4-5” value is reported as “∘ + +”. In assay [1], the “Odor rating vs blank, Day 3, pH 2-3” value is given as “∘ ∘ +”; the “Odor rating vs blank, Day 3, pH 4-5” value was “+ ∘ +”; the “Odor rating vs blank, Day 4, pH 2-3” value is “∘ ∘ +”; the “Odor rating vs blank, Day 4, pH 4-5” value was “+ + ∘”. Also, in assay [2], the “Odor rating vs blank, Day 1, pH 2-3” value is recorded as “∘ ∘ ∘”; the “Odor rating vs blank, Day 1, pH 4-5” value is “∘ + +”; the “Odor rating vs blank, Day 2, pH 2-3” value is given as “∘ ∘ ∘”; the “Odor rating vs blank, Day 2, pH 4-5” value is reported as “+ ∘ +”. In addition, in assay [2], the “Odor rating vs blank, Day 3, pH 2-3” value is on record as “∘ ∘ +”; the “Odor rating vs blank, Day 3, pH 4-5” value is “+ + ∘”; the “Odor rating vs blank, Day 4, pH 2-3” value is “∘ ∘ +”; the “Odor rating vs blank, Day 4, pH 4-5” value was “∘ + +”.

Consider `CC(=O)CCC(=O)[O-].[Na+]` [Na levulinate], for which, in assay [1], the “Odor rating vs blank, Day 1, pH 2-3” value is reported as “+ + +”; the “Odor rating vs blank, Day 1, pH 4-5” value is recorded as “+ ∘ +”; the “Odor rating vs blank, Day 2, pH 2-3” value was “+ + +”; the “Odor rating vs blank, Day 2, pH 4-5” value is listed as “+ ∘ +”. In addition, in assay [1], the “Odor rating vs blank, Day 3, pH 2-3” value was “∘ + +”; the “Odor rating vs blank, Day 3, pH 4-5” value is given as “+ + ∘”; the “Odor rating vs blank, Day 4, pH 2-3” value is “+ + +”; the “Odor rating vs blank, Day 4, pH 4-5” value is “+ + +”. In assay [2], the “Odor rating vs blank, Day 1, pH 2-3” value is reported as “+ + +”; the “Odor rating vs blank, Day 1, pH 4-5” value is “+ ∘ +”; the “Odor rating vs blank, Day 2, pH 2-3” value is on record as “+ + ∘”; the “Odor rating vs blank, Day 2, pH 4-5” value was “+ ∘ ∘”. In assay [2], the “Odor rating vs blank, Day 3, pH 2-3” value is on record as “∘ + +”; the “Odor rating vs blank, Day 3, pH 4-5” value is given as “+ ∘ ∘”; the “Odor rating vs blank, Day 4, pH 2-3” value is “∘ ∘ +”; the “Odor rating vs blank, Day 4, pH 4-5” value is “+ ∘ ∘”.

As for `O=CC(=O)[O-].[Na+]` [Na glyoxylate], in assay [1], the “Odor rating vs blank, Day 1, pH 2-3” value was “∘ + +”; the “Odor rating vs blank, Day 1, pH 4-5” value is on record as “∘ + ∘”; the “Odor rating vs blank, Day 2, pH 2-3” value was “+ + ∘”; the “Odor rating vs blank, Day 2, pH 4-5” value is recorded as “+ + ∘”. Also, in assay [1], the “Odor rating vs blank, Day 3, pH 2-3” value is “∘ ∘ +”; the “Odor rating vs blank, Day 3, pH 4-5” value is “∘ + +”; the “Odor rating vs blank, Day 4, pH 2-3” value was “∘ + +”; the “Odor rating vs blank, Day 4, pH 4-5” value is “+ ∘ +”. For the same compound, in assay [2], the “Odor rating vs blank, Day 1, pH 2-3” value is “∘ ∘ ∘”; the “Odor rating vs blank, Day 1, pH 4-5” value was “∘ ∘ ∘”; the “Odor rating vs blank, Day 2, pH 2-3” value is given as “+ ∘ +”; the “Odor rating vs blank, Day 2, pH 4-5” value is given as “+ ∘ +”. In assay [2], the “Odor rating vs blank, Day 3, pH 2-3” value is “∘ ∘ +”; the “Odor rating vs blank, Day 3, pH 4-5” value was “+ + ∘”; the “Odor rating vs blank, Day 4, pH 2-3” value is recorded as “∘ + +”; the “Odor rating vs blank, Day 4, pH 4-5” value is “∘ + +”.

On to `CC(=O)CCC(=O)O` [levulinic acid, 4-oxopentanoic acid], for which the “odor-reducing action (efficacy), in words” value in assay [1] (pH 2-3 and pH 4-5, summary of Table 1) was “some odor-reducing action in strong acids”. For the same compound, the “odor-reducing effect on permanently waved hair, in words” value in assay [3] is recorded as “effective odor reducer”.
